# Measurements reported in patent US5484803A, “Transcutaneous in vivo activation of photosensitive agents in blood” (priority 1995, dated 1996).
# How the values were obtained:
# [1] = In vitro photodegradation of BPD in mouse blood; format: physicochemical; details: for photodegraded BPD, Dose / Photodegraded BPD: in vitro
# Description: Determination of BPD Concentration in Plasma: Plasma samples were obtained by centrifugation of blood collected from mice and stored frozen at -20° C. until assessment. The concentration of BPD in the samples was determined by fluorometry using a Jasco Model FP-770 (Japan Spectroscopic Co.) spectrofluorometer and a microcuvette (Far UV Quartz Cell, Starna Cells Inc.). Excitation and emission wavelengths were 439 and 699 nm, respectively. Plasma samples were diluted 20-fold with PBS containing 1% Triton® X-100 immediately before fluorescence was determined. BPD standards were prepared in 5% mouse plasma in PBS with 1% Triton® X-100. Under these conditions the relationship between the concentration of BPD and units of fluorescence was linear (correlation coefficient >0.99) for concentrations between 0.1 ng/ml and 1 μg/ml. The limit of detection was below 0.1 ng/ml sample which corresponded to 2 ng/ml plasma. […] The 699 nm fluorescence peak of BPD was virtually free from any interference.
# In order to assess the amount of light penetrating the tissues, in vitro experiments with mouse blood were carried out. The same light source was used, therefore the spectrum of light was the same. The light doses in this experiment were selected to mimic the doses in the in vivo experiments.
# Liposomal BPD was added to freshly obtained heparinized mouse blood to achieve a concentration of 1 μg/ml, following which […] aliquots of blood were dispensed into 35 mm diameter petri dishes, which were placed in the light box and exposed to red light. The dishes were irradiated in the light box from below only. The intensity of light was 35 mW/cm^2. Three different light doses, entailing exposure of 30 min, 1 hour and 1.5-hour, were 63, 126 and 189 J/cm^2, respectively. Duplicate dishes were kept covered with aluminum foil. Immediately following light exposure, the blood was collected from the dishes. Then the plasma was separated by centrifugation. The control unexposed samples were processed at time points corresponding to the light exposed samples.
# The concentration of BPD in plasma separated from light-exposed and unexposed blood was determined by fluorescence. About 51-83% of BPD was degraded by the ranges of light doses used.
# skin = details: DBA/2, 4 mg/kg, cited from earlier work
substance,measurement,setting,value
benzoprophyrin derivative monoacid ring A [BPD],BPD concentration in plasma separated from blood,"[1]; 0 h, no light, BPD 1 μg/ml blood",0.760 µg/mL
same,BPD concentration in plasma separated from blood,"[1]; 1 1/2 h, 189 J/cm^2",0.144 µg/mL
same,BPD concentration in plasma separated from blood,"[1]; 1 1/2 h, no light",0.830 µg/mL
same,BPD concentration in plasma separated from blood,"[1]; 1/2 h, 63 J/cm^2",0.394 µg/mL
same,BPD concentration in plasma separated from blood,"[1]; 1/2 h, no light",0.806 µg/mL
same,BPD degraded in vitro,"[1]; 63-189 J/cm^2, about",51-83%
same,BPD concentration in plasma separated from blood,"[1]; 1 h, 126 J/cm^2",0.220 µg/mL
same,BPD concentration in plasma separated from blood,"[1]; 1 h, no light",0.810 µg/mL
same,"photodegraded BPD, Dose",[1]; 63 J/cm^2,0.412 µg/mL
same,Photodegraded BPD,"[1]; 63 J/cm^2, 1/2 h, 30 min",51%
same,"photodegraded BPD, Dose",[1]; 126 J/cm^2,0.590 µg/mL
same,Photodegraded BPD,"[1]; 126 J/cm^2, 1 h",73%
same,"photodegraded BPD, Dose",[1]; 189 J/cm^2,0.686 µg/mL
same,Photodegraded BPD,"[1]; 189 J/cm^2, 1 1/2 h, 90 min",83%
same,immediate post-exposure changes in the skin,skin; 153 J/cm^2 (170 mW/cm^2) at 3 h,no immediate post-exposure changes in the skin were observed
same,skin necrosis,"skin; 153 J/cm^2 (170 mW/cm^2) at 3 h, within first 24 hour post-exposure, progressed up to 96 hours",severe skin necrosis
same,healing of wounds,"skin; 153 J/cm^2, eventually",the wounds healed and the hair regrew
